In patent US5276049A, “Cyclic urea derivatives, pharmaceutical compositions containing these compounds and methods of using the same” (Dr. Karl Thomae GmbH, priority 1991, dated 1994):
Where a name gives a salt, the structure may show the parent alone.

Key:
[1] = test system: Human Thrombocytes; assay: Fibrinogen Binding to Human Thrombocytes (I125-fibrinogen, gel-filtered platelets); details: inhibition of I125-fibrinogen binding to gel-filtered human platelets, ADP, 20 minutes, ambient temperature; read-out: Fibrinogen Binding test IC50
Description: 1. Fibrinogen Binding to Human Thrombocytes Blood obtained by puncture of an antecubital vein was anticoagulated with trisodium citrate (final concentration: 13 mM) and centrifuged for 10 minutes at 170 *g. The supernatant platelet-rich plasma was placed on a Sepharose 2B column (Pharmacia) and eluted with a solution of 90 mM common salt, 14 mM trisodium citrate, 5 mM glucose and 50 mM tris(hydroxymethyl)aminomethane, adjusted to pH 7.4. The gel-filtered platelets (GFP) appearing in front of the plasma proteins were used for the binding tests. 50 μl of a 60 mM calcium chloride solution, 50 μl of a 0.6 mM adenosine diphosphate solution, 100 μl of substance solution or solvent and 50 μl of fibrinogen solution (containing 3 μg I125-fibrinogen) were added to 750 μl of GFP and incubated for 20 minutes at ambient temperature. The non-specific binding was measured in the presence of 3 mg/ml of cold fibrinogen. 900 μl of the incubate were carefully pipetted onto 250 μl of silicon oil (AP 38: AR 20, 1:2 v/v, Wacker Chemie) in Eppendorf vessels and centrifuged for 2 minutes at 10,000 *g. The aqueous supernatant and some of the oil were removed, the tip of the vessel with the platelet pellet was cut off and the quantity of bound fibrinogen was measured in a gamma-counter. The concentration of substance which inhibited fibrinogen binding by 50% was calculated from a series of concentrations and given as the IC50.

[2] = test system: thrombocyte aggregation in platelet-rich plasma; assay: Antithrombotic effect: collagen-induced thrombocyte aggregation in platelet-rich plasma (Born and Cross); assay type: cell-based; details: human platelet-rich plasma, 10 minutes preincubation at 37° C., read-out: Inhibition of platelet aggregation EC50
Description: 2. Antithrombotic Effect Method: The thrombocyte aggregation was measured in platelet-rich plasma from healthy test subjects using the Born and Cross method (J. Physiol. 170: 397 (1964)). In order to inhibit coaggulation the blood was mixed with 3.14% sodium citrate in a ratio by volume of 1:10. Collagen-induced aggregation: The decrease in the optical density of the platelet suspension was measured photometrically and recorded after the addition of the aggregation-initiating substance. The speed of aggregation was concluded from the angle of inclination of the density curve. The point on the curve at which there was maximum transmittance was used to calculate the optical density. The quantity of collagen used was as little as possible but sufficient to give an irreversible reaction curve. Standard commercial collagen produced by Hormonchemie of Munich was used. Before the addition of collagen the plasma was incubated with the substance for 10 minutes at 37° C. From the measurements obtained, an EC50 was determined graphically, relating to a 50% change in the optical density in terms of inhibiting aggregation.

Structure (SMILES)	IC50 [1] [µM]	EC50 [2] [µM]
N=C(N)c1ccc(N2CCCN(c3ccc(CCC(=O)O)cc3)C2=O)cc1 [1(7), 1-(4-amidino-phenyl)-3-[4-(2-carboxy-ethyl)-phenyl]-3,4,5,6-tetrahydro-1H-pyrimidin-2-one]	2.4	10
CN1C(=O)N(CCC(=O)O)CC1c1ccc(-c2ccc(C(=N)N)cc2)cc1 (centres unmarked) [4(14), 4-(4'-amidino-4-biphenylyl)-1-(2-carboxy-ethyl)-3-methyl-imidazolidin-2-one hydrochloride]	0.041	0.2
N=C(N)c1ccc(-c2ccc(C3CN(CCC(=O)O)C(=O)N3c3ccccc3)cc2)cc1 (centres unmarked) [4(13), 4-(4'-amidino-4-biphenylyl)-1-(2-carboxy-ethyl)-3-phenyl-imidazolidin-2-one hydrochloride]	0.032	0.31
Cn1c(-c2ccc(-c3ccc(C(=N)N)cc3)cc2)cn(CCC(=O)O)c1=O [1(118), 4-(4'-amidino-4-biphenylyl)-1-(2-carboxy-ethyl)-3-methyl-3H-imidazol-2-onehydrochloride]	0.17	0.46
COC(=O)CC(C)(C)c1ccc(N2CCN(c3ccc(C(=N)N)cc3)C2=O)cc1 [2(47), 1-(4-amidino-phenyl)-3-[4-(3-methoxycarbonyl-2-methyl-2-propyl)-phenyl]-imidazolidin-2-one hydrochloride]	32	> 100
CC(N)c1ccc(N2CCN(c3ccc(CCC(=O)O)cc3)C2=O)cc1 (centres unmarked) [1(153), 1-[4-(1-amino-ethyl)-phenyl]-3-[4-(2-carboxy-ethyl)-phenyl]-imidazolidin-2-one]	0.15	0.38
N=C(N)c1ccc(N2CCN(C3CCC(CCC(=O)O)CC3)C2=O)cc1 (centres unmarked) [1(46), 1-(4-amidino-phenyl)-3-[4-(2-carboxy-ethyl)cyclohexyl]-imidazolidin-2-one]	0.011	0.04
COC(=O)CCc1ccc(N2CCN(c3ccc(CN)cc3)C2=O)cc1 [8(2), 1-(4-aminomethyl-phenyl)-3-[4-(2-methoxycarbonyl-ethyl)-phenyl]-imidazolidin-2-one hydrochloride]	0.45	0.37
COC(=O)C(N)Cc1ccc(N2CCN(c3ccc(CN)cc3)C2=O)cc1 (centres unmarked) [8(3), 1-[4-(2-amino-2-methoxycarbonyl-ethyl)-phenyl]-3-(4-aminomethyl-phenyl)-imidazolidin-2-one dihydrochloride]	29	6.2
COC(=O)CN1CCN(c2ccc(-c3ccc(C(=N)N)cc3)cc2)C1=O [Example 2, 1-(4'-Amidino-4-biphenylyl)-3-methoxycarbonylmethyl-imidazolidin-2-one hydrochloride]	6	12
COC(=O)CCc1ccc(-n2ccn(-c3ccc(C(=N)N)cc3)c2=O)cc1 [2(58), 1-(4-amidino-phenyl)-3-[4-(2-methoxycarbonyl-ethyl)-phenyl]-3H-imidazol-2-one hydrochloride]	4.7	0.14
N=C(N)c1ccc(N2CC(=O)N(c3ccc(CCC(=O)O)cc3)C2=O)cc1 [1(62), 1-(4-amidino-phenyl)-3-[4-(2-carboxy-ethyl)-phenyl]-imidazolidin-2,4-dione]	0.013	0.04
N=C(N)c1ccc(N2CCN(CCCCC(=O)O)C2=O)cc1 [1(77), -(4-amidino-phenyl)-3-(4-carboxy-butyl)-imidazolidin-2-one]	4.9	8
COC(=O)CCc1ccc(-n2ccn(-c3ccc(C(=N)NC(=O)OC)cc3)c2=O)cc1 [5(8), 1-(4-methoxycarbonylamidino-phenyl)-3-[4-(2-methoxycarbonyl-ethyl)-phenyl]-3H-imidazol-2-one]	8	31
COC(=O)CCN1CC(c2ccc(-c3ccc(C(=N)N)cc3)cc2)N(c2ccccc2)C1=O (centres unmarked) [4(9), 4-(4'-amidino-4-biphenylyl)-1-(2-methoxycarbonyl-ethyl)-3-phenyl-imidazolidin-2-one hydrochloride]	2.6	9.5
N=C(N)c1ccc(N2CCN(CCNCC(=O)O)C2=O)cc1 [1(82), 1-(4-amidino-phenyl)-3-(2-carboxymethylaminoethyl)-imidazolidin-2-one]	17	29

Structure (SMILES)	IC50 [1] [µM]	EC50 [2] [µM]
COC(=O)CCc1ccc(N2C(=O)CN(c3ccc(C(=N)NC(=O)OC)cc3)C2=O)cc1 [5(13), 1-(4-methoxycarbonylamidino-phenyl)-3-[4-(2-methoxycarbonyl-ethyl)-phenyl]-imidazolidin-2,4-dione]	> 10	24
N=C(N)c1ccc(N2CCN(c3ccc(CC(N)C(=O)O)cc3)C2=O)cc1 (centres unmarked) [4(18), 1-(4-amidino-phenyl)-3-[4-(2-amino-2-carboxy-ethyl)-phenyl]-imidazolidin-2-one]	0.048	0.21
CCOC(=O)CCc1ccc(-n2ccn(-c3ccc(C(=N)NC(=O)OCC)cc3)c2=O)cc1 [Example 5, 1-(4-Ethoxycarbonylamidino-phenyl)-3-[4-(2-ethoxycarbonyl-ethyl)-phenyl]-3H-imidazol-2-one]	9.3	32
COC(=O)CCCCn1c(=O)n(-c2ccc(C(=N)N)cc2)c2ncccc21 [2(116), 3-(4-amidino-phenyl)-1-(4-methoxycarbonyl-butyl)-3H-imidazo[4,5-b]pyridin-2-one dihydrochloride]	59	49
COC(=O)c1ccc(CCN2CCN(c3ccc(C(=N)N)cc3)C2=O)cc1 [2(48), 1-(4-amidino-phenyl)-3-[2-(4-methoxycarbonyl-phenyl)-ethyl]-imidazolidin-2-one]	22	> 100
NC1CCc2cc(N3CCN(c4ccc(CCC(=O)O)cc4)C3=O)ccc21 (centres unmarked) [1(154), 1-(1-amino-5-indanyl)-3-[4-(2-carboxy-ethyl)-phenyl] -imidazolidin-2-one]	0.028	0.31
N=C(N)c1ccc(-n2ccn(-c3ccc(CC(C(=O)O)N(Cc4ccccc4)Cc4ccccc4)cc3)c2=O)cc1 (centres unmarked) [1(150), 1-(4-amidino-phenyl)-3-[4-(2-carboxy-2-dibenzylamino-ethyl)-phenyl]-3H-imidazol-2-one]	0.37	9.9
COC(=O)CCc1ccc(N2CCN(c3ccc(C(=N)N)cc3)S2(=O)=O)cc1 [2(57), 2-(4-amidino-phenyl)-5-[4-(2-methoxycarbonyl-ethyl)-phenyl]-3,4-dihydro-2H,5H-1,2,5-thiadiazole-1,1-dioxide hydrochloride]	0.64	0.32
N=C(N)c1ccc(N2CCN(CCc3ccc(C(=O)O)cc3)C2=O)cc1 [1(55), 1-(4-amidino-phenyl)-3-[2-(4-carboxyphenyl)-ethyl]-imidazolidin-2-one]	0.86	60
CCc1nn(-c2ccc(C(=N)N)cc2)c(=O)n1-c1ccc(CCC(=O)OC)cc1 [2(119), 2-(4-amidino-phenyl)-5-ethyl-4-[4-(2-methoxycarbonyl-ethyl)-phenyl]-4H-1,2,4-triazol-3-one hydrochloride]	0.28	0.04
COC(=O)CCc1ccc(N2CCN(c3ccc(C(=N)N)cc3)C2=O)cc1 [2(6), 1-(4-amidino-phenyl)-3-[4-(2-methoxycarbonyl-ethyl)-phenyl]-imidazolidin-2-one hydrochloride]	0.24	0.16
N=C(N)c1ccc(N2CCN(c3ccc(SCC(=O)O)cc3)C2=O)cc1 [1(48), 1-(4-amidino-phenyl)-3-(4-carboxymethylthiophenyl)-imidazolidin-2-one]	0.21	1.1
COC(=O)CCc1ccc(-n2cc(-c3ccc(C(=N)N)cc3)n(C)c2=O)cc1 [2(81), 4-(4-amidino-phenyl)-1-[4-(2-methoxycarbonyl-ethyl)-phenyl]-3-methyl-3H-imidazol-2-one hydrochloride]	19	1.5
N=C(N)c1ccc(N2CCN(c3ccc(S(=O)(=O)CC(=O)O)cc3)C2=O)cc1 [1(50), 1-(4-amidino-phenyl)-3-(4-carboxymethylsulphonylphenyl)-imidazolidin-2-one]	0.045	0.29
COC(=O)C(Cc1ccc(-n2ccn(-c3ccc(C(=N)N)cc3)c2=O)cc1)N(Cc1ccccc1)Cc1ccccc1 (centres unmarked) [2(127), 1-(4-amidino-phenyl)-3-[4-(2-dibenzylamino-2-methoxycarbonyl-ethyl)-phenyl]-3H-imidazol-2-one hydrochloride]	5.6	18
